Test results reported in publication PMC7738871, “Covalent modification of Keap1 at Cys77 and Cys434 by pubescenoside a suppresses oxidative stress-induced NLRP3 inflammasome activation in myocardial ischemia-reperfusion injury” (Theranostics, 2021).

Tests used:
[1] = system: HO-1 and NQO1; assay: HO-1 and NQO1 protein expression, RAW264.7; format: cell-based; conditions: RAW264.7, 24 h, dose-dependent
Experimental: Total protein was isolated from H9c2 cells, primary mouse cardiomyocytes, RAW264.7 cells and heart tissue using 1X RIPA buffer containing phosphatase and proteinase inhibitors at 4 °C. After measurement of the concentration, the cell lysates were separated by sodium dodecyl sulphate polyacrylamide gel electrophoresis (SDS-PAGE) and transferred to polyvinylidene fluoride (PVDF) membranes. The membranes were blocked in Tris-buffered saline-Tween 20 (TBST) buffer with 5% BSA for 1 h and incubated with primary antibodies (1:1000 dilution) overnight at 4 °C. After the membranes was washed by TBST buffer for three times, they were incubated with horseradish peroxidase (HRP)-conjugated secondary mouse or rabbit antibodies (1:3,000 dilution) at room temperature (RT) for 1.5 h and then detected by SuperEnhanced chemiluminescence (ECL) reaction reagents (GBCBIO Technologies Inc., Guangzhou, Guangdong, China). In brief, drop evenly the ECL working liquid onto the membrane at the ratio of 1 mL ECL working liquid and 10 cm^2 of membrane. After letting the membranes stand for 1-2 min, the bands of the respective proteins were detected with the exposure time of 10 ~60 s.

[2] = system: T1, interaction of Keap1 and Cul3; assay: Co-IP of Keap1 and Cul3 in 293T cells; format: cell-based, human
T1 construct: expressed in transfected cells; host or cells: 293T
Experimental: Alkylation of the BTB domain of Keap1 by covalent modifiers contributes to the disruption of the Keap1-Cul3 interactions, leading to Nrf2 activation. Next, we investigated the effect of PBA on the modulation of Nrf2 ubiquitination as Nrf2 stability is controlled by ubiquitin-mediated proteasomal degradation. First, 3X Flag-Keap1, Myc-Nrf2 and Ub plasmids were transfected into 293T cells and then, the cells were treated with 30 μM PBA for 20 h and 5 μM MG132 for another 4 h. Cell lysates were pulled down using anti-Myc beads, and immunopurified Nrf2 was examined for the occurrence of Ub by western blotting. […]
Figure 6 PBA suppresses Keap1-mediated ubiquitination of Nrf2 by disrupting the interaction between Cul3 and Keap1. […] The cell lysates were immunoprecipitated using anti-Myc beads, and the ubiquitination level was evaluated using the anti-Ub antibody. […] The cell lysates were immunoprecipitated with the anti-Flag antibody, and the level of Nrf2 was assessed using the anti-Nrf2 antibody. […] The cell lysates were immunoprecipitated with the anti-Flag antibody, and the level of Cul3 was measured using the anti-Cul3 antibody. #p < 0.05, ##p < 0.01, ###p < 0.001, the control vs DMSO; *p < 0.05,**p < 0.01, ***p < 0.001, PBA or tBHQ vs DMSO. […] Cell viability was measured by MTT assays. #p < 0.05, ###p < 0.001, the control vs OGD/R; **p < 0.01, ***p < 0.001, OGD/R+PBA vs OGD/R.

[3] = system: recombinant Keap1 mutant proteins; assay: Pull-down of recombinant Keap1 mutants with PBA-Sepharose 4B; format: binding, human; conditions: cysteine to serine mutants
Experimental: PBA-Sepharose 4B beads were created by dissolving PBA in coupling buffer (100 mM NaHCO3, pH 8.3, 0.5 M NaCl). After washing with 1 mM HCl medium, Sepharose 4B beads were mixed with PBA coupling buffer and slowly rotated overnight at 4 °C. Excess PBA was washed away with coupling buffer and any remaining active groups were blocked with 0.1 M Tris-HCl buffer (pH 8.0) for 2 h. The medium was then washed with 0.1 M acetate buffer (pH 4.0) containing 0.5 M NaCl followed by a wash with 0.1 M Tris-HCl (pH 8.0) that also contained 0.5 M NaCl. PBA-Sepharose 4B beads were ready for use in the pull-down assay. The RAW264.7 cellular supernatant fraction (600 µg) was incubated with either PBA-Sepharose 4B or Sepharose 4B as a negative control in reaction buffer (50 mM Tris-HCl, pH 7.5, 5 mM EDTA, 150 mM NaCl, 1 mM DTT, 0.01% NP-40, 2 µg/mL of BSA, 0.02 mM PMSF, 1 × protease inhibitor cocktail). After incubation with gentle rocking overnight at 4 °C, the beads were washed five times with wash buffer (50 mM Tris-HCl, pH 7.5, 5 mM EDTA, 150 mM NaCl, 1 mM DTT, 0.01% NP-40, 0.02 mM PMSF) and proteins bound to the beads were analyzed by immunoblotting assay with a Keap1 antibody.
The mutant plasmid DNA was obtained by PCR. The PCR products were cleaved by DpnI restriction enzymes. […] Colonies were evaluated by colony PCR and sequenced. […]

[4] = system: NLRP3 inflammasome; assay: OGD/R-induced NLRP3 inflammasome activation in primary cardiomyocytes; format: cell-based, mouse; conditions: OGD 3 h, reperfusion 18 h, dose-dependent
Experimental: The heart was removed from the neonatal C57BL/6 mice and cut into 1 mm^3 pieces in ice […] buffer. The tissues were digested with the mixture of 0.125% trypsin (Gibco, 15090-046) and 0.1% type II collagenase (Gibco, 17101-015) 6 min at 37 °C for three times until the tissues were completely digested. The cells were harvested and seeded in a dish. After 90 min of incubation, the cell culture medium was collected and centrifuged. The centrifuged cardiomyocytes were harvested, seeded on 0.1 % gelatin-coated culture plates with DMEM containing 10% FBS and […] Brdu, and incubated in a 37°C incubator.
Total protein was isolated from H9c2 cells, primary mouse cardiomyocytes, RAW264.7 cells and heart tissue using 1X RIPA buffer containing phosphatase and proteinase inhibitors at 4 °C. […] After the membranes was washed by TBST buffer for three times, they were incubated with horseradish peroxidase (HRP)-conjugated secondary mouse or rabbit antibodies (1:3,000 dilution) at room temperature (RT) for 1.5 h and then detected by SuperEnhanced chemiluminescence (ECL) reaction reagents (GBCBIO Technologies Inc., Guangzhou, Guangdong, China). […] After letting the membranes stand for 1-2 min, the bands of the respective proteins were detected with the exposure time of 10 ~60 s.

binding of Keap1 mutants of Cys434, Cys77, Cys23 and Cys38 (pull-down) [3]: lost the capacity to bind | binding of other Keap1 mutants (pull-down) [3]: retained their high binding affinity
SMILES: C=C(COC(=O)C=Cc1ccc(O)c(O)c1)C(O)COC1OC(CO)C(O)C(O)C1O (stereo not drawn) [PBA, pubescenoside A]
HO-1 and NQO1 expression at the protein level [1]: increased | disruption of Keap1 and Cul3 interaction in mutant cells ([2]; Cys77S and Cys434-Keap1 mutant cells): blocked | interaction of Keap1 and Cul3 (Co-IP) ([2]; WT-Keap1 293T cells, 30 μM PBA 12 h): could disrupt | OGD/R-induced inflammasome activation (NLRP3, cleaved-caspase1, mature IL-1β) [4]: substantially inhibited
